{"source": "patent US9234186B2", "about": "“Star-worm luciferase” (OLYMPUS CORPORATION, priority 2011, dated 2016)", "target": "GL3 luciferase derived from P. pyralis (Photinus pyralis, UniProt P08659, K549A/L550V/N119G/N50D/S548I)", "sequence (P08659 whole entry N50D/N119G/S548I/K549A/L550V)": "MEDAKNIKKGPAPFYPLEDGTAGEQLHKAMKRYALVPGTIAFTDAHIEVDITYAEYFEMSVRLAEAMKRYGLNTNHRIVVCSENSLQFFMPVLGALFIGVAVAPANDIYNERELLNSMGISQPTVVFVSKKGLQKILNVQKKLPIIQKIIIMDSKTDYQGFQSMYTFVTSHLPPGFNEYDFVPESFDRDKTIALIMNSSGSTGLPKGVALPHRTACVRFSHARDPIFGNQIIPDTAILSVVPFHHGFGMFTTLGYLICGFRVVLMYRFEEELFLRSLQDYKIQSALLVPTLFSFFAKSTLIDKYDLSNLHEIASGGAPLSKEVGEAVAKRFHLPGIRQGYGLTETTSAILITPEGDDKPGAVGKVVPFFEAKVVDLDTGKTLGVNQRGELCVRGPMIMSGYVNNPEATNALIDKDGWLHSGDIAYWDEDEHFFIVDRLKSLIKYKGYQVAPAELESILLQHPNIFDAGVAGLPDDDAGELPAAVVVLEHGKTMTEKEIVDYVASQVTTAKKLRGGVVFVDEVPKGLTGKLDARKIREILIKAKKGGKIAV", "type": "biochemical", "settings": "read-out: Km for ATP; 0.1 M Tris-HCl pH 8.0; enzyme solution with 1 mM D-luciferin, 8 mM MgSO4", "data": [{"smiles": "Nc1ncnc2c1ncn2[C@@H]1O[C@H](COP(=O)(O)OP(=O)(O)OP(=O)(O)O)[C@@H](O)[C@H]1O", "note": "[ATP, Adenosine triphosphate]", "values": [{"measurement": "Km", "value": 64.3, "unit": "µM"}]}]}
